Data taken from US20210322327A1, “EXTRACELLULAR VESICLES COMPRISING STING-AGONIST” (Codiak BioSciences, Inc., priority 2018, published 2021).

Legend:
[1] = tested on: CT26.CL25 cells; experiment: CT26.CL25 colorectal tumor growth; type: in vivo, BALB/c mice; conditions: 0.012 μg free, days 13, 16, 19
Procedure: To test and expand in vivo efficacy to other types of tumors, BALB/c mice were inoculated subcutaneously with 5×10^5 CT26.CL25 cells (ATCC®; CRL-2639™), a murine colorectal cancer cell line engineered to stably express beta-galactosidase, or 5×10^5 CT26.WT cells (ATCC®; CRL-2638™) (n=5-7 mice per group). Thirteen, sixteen, and nineteen days post-inoculation the mice were injected intratumorally into CT26.CL25 tumor with exosomes, 0.012 μg of free 3-3 cAIMPdFSH, or 0.012 μg-3 cAIMPdFSH loaded in PTGFRN-overexpressing exosomes and into CT26.WT tumor with PBS, exosomes, 100 μg of free ML RR-S2 CDA, or 0.2 μg-3 cAIMPdFSH loaded in PTGFRN-overexpressing exosomes.

[2] = tested on: IFNβ, CXCL9, CXCL10, IFNγ; serum cytokines; experiment: Cytokine levels after subcutaneous injection in naïve mice; type: in vivo, C57BL/6 mice; conditions: 20 μg free, four hours
Procedure: To compare in vivo activity of free STING agonist and STING agonist-loaded exosomes beyond intratumoral dosing, naïve C57BL/6 mice were injected subcutaneously with PBS, exosomes, 20 μg of free 3-3 cAIMPdFSH or 0.2 μg 3-3 cAIMPdFSH loaded in PTGFRN-overexpressing exosomes. Four hours post-injection, lymph nodes, spleens, livers, and serum were collected and cytokine levels were measured.

[3] = tested on: STING pathway; experiment: Cytokine levels after single intratumoral dose in C57BL/6 and STING knock-out tumor-bearing mice; type: in vivo, C57BL/6 mice and C57BL/6-Tmem173^gt mice; conditions: C57BL/6 mice; 20 μg intratumoral, four hours
Procedure: Three groups of C57BL/6 mice and C57BL/6-Tmem173^gt mice (4-5 mice per group) were inoculated subcutaneously with 1×10^6 B16F10 tumor cells. Eight days post-inoculation the mice were injected with a single intratumoral dose of PBS, 20 μg of free 3-3 cAIMPdFSH, or 0.1 μg of 3-3 cAIMPdFSH loaded in PTGFN-overexpressing exosomes (exeSTING). Four hours post-injection the tumors, draining lymph nodes, spleens, and serum were collected and cytokine levels were measured. […] In addition to gene expression, serum cytokine profiles are showing same trend (FIG. 58).

[4] = tested on: B16F10 murine melanoma cells; experiment: B16F10 primary tumor and re-challenge, durable T cell responses; type: in vivo, C57BL/6 mice
Procedure: Six, nine, and twelve days post-inoculation, the tumors were injected intratumorally with PBS, exosomes, 100 μg of free ML RR-S2 CDA, or 0.2 μg 3-3 cAIMPdFSH loaded in PTGFRN-overexpressing exosomes. […] Five additional naïve mice were inoculated with the same tumor cell preparation and treated daily with PBS to ensure cell viability and growth kinetics. By day 37 (17 days post-challenge) all mice in the PBS group were sacrificed.

[5] = tested on: CD8+ T-cells, macrophages, and dendritic cells; experiment: Live CD45+ cell populations in B16F10 tumors 24 hours post-injection; type: in vivo, mice; conditions: 20 μg intratumoral
Procedure: Constitutive activation of the STING pathway results in robust pro-inflammatory signaling and may be toxic to cells and tissues (N Engl J Med. 2014 Aug. 7; 371(6): 507-518). Non-selective delivery of STING agonists in a tumor microenvironment may result in a robust IFNβ response, but if response is too strong or originates in undesired cell populations, effector cells such as CD8^+ T-cells may be killed or otherwise attenuated. B16F10 melanoma tumors were injected with PTGFRN-overexpressing exosomes labeled with Alexa Fluor™ 488 and removed one hour post-injection. Tumor-infiltrating lymphocytes were purified and measured for fluorescence at 488 nm to track exosome uptake. Only ˜20% of T-cells engulfed exosomes, while ˜90% and ˜70% of macrophages and dendritic cells, respectively, engulfed exosomes (FIG. 51A). […] 24 hours post-injection, the tumors were isolated, homogenized, and live CD45^+ cell populations were counted. […] Non-selective delivery of high doses of STING agonists therefore may attenuate desirable immune stimulatory responses.

[6] = tested on: B16F10 murine melanoma cells; experiment: B16F10 melanoma tumor growth, intratumoral injection; type: in vivo, C57BL/6 mice; conditions: for tumor growth compared to PBS: day 25
Procedure: To test this hypothesis, C57BL/6 mice were inoculated subcutaneously with 5×10^5 B16F10 murine melanoma cells (n=5 mice per group). Five, eight, and eleven days post-inoculation the mice were injected intratumorally with PBS, 20 μg ML RR-S2, 0.2 μg ML RR-S2, or 0.2 μg ML RR-S2 loaded in PTGFRN-overexpressing exosomes Tumor volumes were measured daily until day 39, and animals were sacrificed when tumor volume reached 2000 mm^3.

[7] = tested on: OVA-reactive splenocytes; experiment: IFNγ ELISpot of splenocytes with OVA peptide SIINFEKL; type: in vivo, C57BL/6 mice
Procedure: As an orthogonal method to measure antigen-specific immunity, IFNγ-expression was measured by ELISpot according to standard protocols (ImmunoSpot®; Cellular Technology Limited). Splenocytes were homogenized to a single-cell suspension and plated (200,000 cells/well) in a plate coated with an anti-IFNγ antibody. The OVA peptide SIINFEKL was added to the cells for 18 hours to induce IFNγ production, cells were washed from the plate, and plate-bound IFNγ was detected using an orthogonal antibody (FIG. 41D). The total number of reactive spots per plate were counted and compared across groups using ImmunoSpot® software (Cellular Technology Limited).

Nc1ncnc2c1ncn2[C@@H]1O[C@@H]2COP(=O)(S)O[C@H]3[C@@H](F)[C@H](n4cnc5c(=O)[nH]cnc54)O[C@@H]3COP(O)(=S)O[C@H]2[C@H]1F (some centres unmarked) [3-3 cAIMPdFSH, 3′3′-cAIMPdFSH]
tumor growth compared to control [1]: moderately attenuated tumor growth
IFNβ gene expression in lymph nodes, spleens, livers [2]: significantly elevated
IFNβ gene expression in tumors, draining lymph node, spleen [3]: comparable in the 20 μg free STING agonist and 0.1 μg exosome-STING agonist groups

Nc1ncnc2c1ncn2[C@@H]1O[C@@H]2COP(O)(=S)O[C@@H]3C(O)[C@@H](COP(O)(=S)O[C@H]2[C@H]1O)O[C@H]3n1cnc2c(N)ncnc21 (some centres unmarked) [ML RR-S2 CDA]
animals in which re-challenge tumor growth was not inhibited ([4]; 100 μg free group, re-challenged day 20, read day 37): 10 out of 10
animals that showed complete response (primary tumor) ([4]; 100 μg free, intratumoral days 6, 9, 12): ten
CD8+ T-cells, macrophages, and dendritic cells in tumor [5]: dramatically reduced compared to the other groups
tumor growth compared to PBS ([6]; 0.2 μg intratumoral days 5, 8, 11): moderately potentiated
complete response (undetectable tumors at the site of inoculation) ([6]; 20 μg intratumoral): three out of five
tumor growth compared to PBS ([6]; 20 μg intratumoral days 5, 8, 11): almost completely eliminated
OVA-reactivity (IFNγ spots) ([7]; 0.2 μg IP): very low levels of OVA-reactivity
OVA-reactivity (IFNγ spots) ([7]; 20 μg IP): highly reactive
